# In patent US20230399611A1, “PRODUCTION METHOD FOR STAGE 5 NEURONS” (Ricoh Company, Ltd., priority 2022, published 2023):
# Assays:
# [1] = system: human iPSC-derived neurons; test: Population firing rate of iPSC-derived neurons on high-density microelectrode array (HD-MEA); format: cell-based; details: added at 8 weeks after initiation of culture with increasing concentration; 1,024 electrodes per well; 10-minute recording per concentration
# Protocol: Electrophysiological responses of the human iPSC-derived neurons were analyzed by using a high-density microelectrode array system (HD-MEA, MaxWell Biosystems AG).
# Human iPSC-derived neurons (product name “Quick-Neuron (trademark) Excitatory-Human iPSC-derived Neurons”, ELIXIRGEN SCIENTIFIC, INC.) were cultured in the same manner as in Experimental Example 1, except that the human iPSC-derived neurons were seeded on electrodes of the high-density microelectrode array (HD-MEA) at a cell density of 100,000 cells/well, and the local electric field potential was measured over time.
# 4-Aminopyridine (4-AP) serving as a potassium channel inhibitor and D-2-Amino-5-phosphonopentanoic acid (D-AP5) serving ax an NMDA receptor inhibitor were added in the culture medium of iPSC-derived neurons at 8 weeks after the initiation of culture while increasing each concentration, and population firing rate histograms were recorded with 1,024 electrodes per well. One-minute stabilization and 10-minute recording were performed for each concentration. Finally, the iPSC-derived neurons were washed with three medium replacements and left for one day, and it was confirmed that the effect of each drug had disappeared.
# [2] = system: Human iPSC-derived mature stage 5 neurons; test: Localization change of drebrin by immunostaining after glutamic acid treatment; format: cell-based; details: 100 μM for 10 min; immunostaining of MAP2, drebrin, nuclei
# Protocol: Human iPSC-derived mature stage 5 neurons were treated with 100 μM glutamic acid for 10 minutes and then immunostained to examine the localization change of drebrin. For comparison, a sample immunostained without glutamic acid treatment was also prepared.
Compound,response of population firing rate to the drug [1],localization change of drebrin [2]
"Nc1ccncc1 [4-AP, 4-Aminopyridine]",dose-dependent responses,–
"N[C@H](CCCP(=O)(O)O)C(=O)O [D-AP5, D-2-Amino-5-phosphonopentanoic acid]",dose-dependent responses,–
"N[C@@H](CCC(=O)O)C(=O)O [glutamate, glutamic acid]",–,drebrin was effluxed from clusters in spines
